Results from US12545637B2, “Extrahepatic targeted cationic lipid compound with high efficiency and low toxicity and its composition” (BEIJING YOUCARE KECHUANG PHARMACEUTICAL TECHNOLOGY CO., LTD., priority 2023, dated 2026).

Tests used:
female BALB/C mice [1] = test: In vivo imaging in mice of Fluc-mRNA LNP formulations (mRNA expression and duration); settings: Fluc-mRNA LNP intramuscular; for average radiation intensity, 6 h: 6 h after administration; for average radiation intensity, 24 h: 24 h after administration; for average radiation intensity, 48 h: 48 h after administration; for average radiation intensity, 7 d: 7 d after administration
Description: (§1) The LNP formulation (prepared according to Example 4) containing […] Fluc-mRNA was injected intramuscularly into female BALB/C mice aged 4-6 weeks and weighed 17-19 g, and the mice were intraperitoneally injected with fluorescent imaging substrate at specific time points after administration (6h, 24 h, 48h and 7d), where the mice were allowed to free move for 5 minutes, and then the average radiation intensity (corresponding to fluorescence expression intensity) of the protein expression of the mRNA carried by the LNP in the mice was detected by the IVIS Spectrum small animal in vivo imaging system.

293T cells [2] = test: Cell survival rate assay (CCK-8); format: cell-based; settings: LNP with 1.5 μg Fluc-mRNA, 24 hours, CCK-8
Description: Cell recovery and passage: 293T cells were recovered, cultured in a culture dish, and passaged to the required number of cells.
(§2) Seeding plate: The cells in the culture dish were digested and counted. Cells were spread in a 96-well plate at 10,000 cells per well and in a 12-well plate at 150,000 cells per well. Cells were cultured overnight until the cells adhered to the wall.
An LNP formulation containing 1.5 μg of Fluc-mRNA (prepared according to example 4, the carrier components of the LNP formulation were cationic lipid, neutral lipid, structured lipid and polymer-conjugated lipid at a molar ratio of 49:10:39.5:1.5, wherein the cationic lipid was listed in Table 1) and the formulation of Lipofectamine 3000 were added to the cell culture medium of a 96-well plate, and further cultivated for 24 hours. 10 μL of CCK-8 solution was then added to each well, and the culture plate was incubated in an incubator for 1 hour. The absorbance at 450 nm was measured by a microplate reader.

female BALB/C mice [3] = test: Distribution of liposomes in mice (protein expression in liver, spleen, lung, heart and kidney); format: in vivo; settings: mouse, in vivo
Description: as §1
Current mRNA vaccines usually express proteins in muscle.

293T cells [4] = test: Fluorescent detection of Fluc-mRNA (cell transfection efficiency of LNP formulations); format: cell-based; settings: LNP with 0.3 μg Fluc-mRNA, 96-well plate, 24 hours
Description: as §2
The corresponding reagents were added according to the instructions of the Gaussia Luciferase Assay Kit, and the fluorescence expression intensity of each well was detected by an IVIS fluorescence detection system.

[5] = Particle size and polydispersity index (PDI) of lipid nanoparticles by dynamic light scattering; format: physicochemical; settings: for PDI: LNP formulation of the cationic lipid, 25° C.; for Particle size: LNP formulation of the cationic lipid/DSPC/cholesterol/DMG-PEG2000 49:10:39.5:1.5, 25° C.
Description: The particle size and polydispersity index (PDI) were determined by dynamic light scattering using Malvern laser particle size analyzer.
10 μL of the liposome solution was weighed, diluted to 1 mL with RNase-free deionized water, and added to the sample pool. Each sample was measured in triplicate. The measurement conditions were: […] scattering angle, and 25° C.

[6] = Detection of encapsulation efficiency, drug loading concentration and total RNA concentration (RiboGreen); format: physicochemical; settings: LNP formulation prepared from the cationic lipid
From the text: Encapsulation efficiency is a key quality attribute of liposomes, which refers to the percentage of drug content encapsulated in the lipid bimolecular layer accounting for the total drug dose and can reflect the degree of drug encapsulation in liposomes. The Chinese Pharmacopoeia stipulates that the encapsulation efficiency should generally not be less than 80%.
The drug loading amount is the ratio of the amount of drug in the liposome to the total amount of drug and carrier in the liposome. The drug loading amount directly affects the clinical application dose of the drug. […] The drug loading concentration is proportional to the drug loading amount, and the relative proportion of the drug loading concentrations can represent the relative proportion of the drug loading amounts. The relative ratio of the total RNA concentrations may represent the relative ratio of the amounts of mRNA carried by the LNP formulations.
1×TE buffer, 0.1% Triton X-100 buffer, RiboGreen reagent (1: 200) and mRNA standard stock solution were prepared.
An appropriate amount of the sample was added to an appropriate amount of 1×TE buffer, and the mixture was diluted to obtain a solution containing approximately […] sample per 1 mL. Then the sample was added to a 96-well plate, and 50 μL of the diluted test sample or the mRNA standard stock solution was added to each well, then 1×TE buffer and 0.1% Triton X-100 buffer were added. The sample was incubated at 37° C. for 10 minutes, and 100 μL RiboGreen reagent (1:200) was added to each well of the test sample in the 96-well plate. The sample was centrifugated, and the data were read using a microplate reader, and processed.

Compound | average radiation intensity, 6 h (female BALB/C mice [1]) | average radiation intensity, 24 h (female BALB/C mice [1]) | average radiation intensity, 48 h (female BALB/C mice [1]) | average radiation intensity, 7 d (female BALB/C mice [1]) | Cell survival rate (293T cells [2]) [%] | protein expression in the liver (female BALB/C mice [3]) | Relative light unit (RLU) (293T cells [4]) | PDI [5] [%] | Particle size [5] [nm] | Drug loading concentration [6] [µg/mL] | Encapsulation efficiency [6] [%] | Total RNA concentration [6] [µg/mL] | protein expression in the spleen (female BALB/C mice [3])
CCCCCCCCCCCCC(O)CN(C)CCCCCC(=O)OCC(CCCCCC)CCCCCCCC (stereo not drawn) [HHMA, reference compound] | 661080 | 120010 | 33346 | 5958 | 64.27 | had protein expression in the liver | 2078940 | 16.6 | 144 | 32.65 | 60.2 | 36.44 | –
CCCCCCCCC(CCCCCCCC)OC(=O)CCCCCCCN(CCO)CCCCCCCC(=O)OCCC(CCCCCC)CCCCCC [Compound 21, reference compound] | 600500 | 111040 | 31540 | 6378 | 67.84 | had protein expression in the liver | 1511024 | – | – | – | – | – | –
CCCCCCCCC(CCCCCC)C(=O)OCCCCCCN(CCCCO)CCCCCCOC(=O)C(CCCCCC)CCCCCCCC (stereo not drawn) [ALC-0315, reference compound] | 841020 | 189740 | 40125 | 7014 | 47.21 | had protein expression in the liver | 2189470 | 18.2 | 205 | 26.88 | 63.3 | 37.86 | –
CCCCCCCCCCOC(=O)CCCN(CCO)CCCCCC(=O)OCC(CCCCCCCC)CCCCCCCC [YK-009, reference compound] | 981240 | 705470 | 100560 | 9555 | 70.43 | – | 5146376 | 16.0 | 189 | 27.52 | 63.4 | 38.50 | –
CCCCCCCCCCOC(=O)CCCCCN(CCO)CCN(CCO)CCCCCC(=O)OCCC(CCCCCC)CCCCCC [YK-411] | 5850 | 2022 | 975 | 480 | 16.33 | had no protein expression in the liver | 7976 | 5.2 | 150 | 36.72 | 86.3 | 42.57 | –
CCCCCCCCCCOC(=O)CCCCCN(CCO)CCCN(CCO)CCCCCC(=O)OCCC(CCCCCC)CCCCCC [YK-417] | 60480 | 19987 | 7045 | 2284 | 21.34 | – | 117287 | 17.7 | 128 | 25.02 | 74.8 | 33.46 | –
CCCCCCCCC(CCCCCCCC)OC(=O)CCCCCN(CCO)CCCN(CCO)CCCCCC(=O)OC(CCCCCCCC)CCCCCCCC [YK-419, di(heptadecan-9-yl) 6,6′-(propane-1,3-diyl-bis((2-hydroxyethyl)azanediyl))dihexanoate] | – | – | – | – | 38.92 | had no protein expression in the liver | 3167322 | 11.2 | 169 | 30.40 | 88.3 | 34.44 | had protein expression in the spleen
CCCCCCCCCCCOC(=O)CCCN(CCO)CCCN(CCO)CCCCCC(=O)OCC(CCCCCCCC)CCCCCCCC [YK-415, 2-octyldecyl 6-((2-hydroxyethyl)(3-((2-hydroxyethyl)(4-oxo-4-(undecyloxy)butyl)amino)propyl)amino)hexanoate] | 117840 | 64501 | 15790 | 4041 | 61.16 | – | 298021 | 15.6 | 178 | 31.08 | 87.8 | 35.39 | –
CCCCCCCCC(CCCCCCCC)COC(=O)CCCCCN(CCCO)CCCCN(CCCO)CCCCCC(=O)OCC(CCCCCCCC)CCCCCCCC [YK-424, bis(2-octyldecyl) 6,6′-(butane-1,4-diylbis((3-hydroxypropyl)azanediyl))dihexanoate] | – | – | – | – | 27.93 | had no protein expression in the liver | 2883414 | 16.1 | 170 | 32.84 | 92.8 | 35.39 | had protein expression in the spleen
CCCCCCCCCCOC(=O)CCCN(CCO)CCCN(CCO)CCCCCCOC(=O)CC(CCCCCC)CCCCCC [YK-418, 6-((3-((4-(decyloxy)-4-oxobutyl)(2-hydroxyethyl)amino)propyl)(2-hydroxyethyl)amino)hexyl 3-hexylnonanoate] | – | – | – | – | 21.05 | had no protein expression in the liver | 111251 | 17.2 | 149 | 24.96 | 75.6 | 33.01 | –
